# Measured values taken from patent US4518789A, “Phenyl alpha-acyloxyacetamide derivatives and their therapeutic use” (priority 1983, dated 1985).
# Tests used:
# [1] = system: calming or quieting behaviour; experiment: Tranquilizing effect, topical administration in hairless mice; type: in vivo; conditions: 5% solution topical
# Protocol: Hairless mice, ten in each group, were used in this study. N-phenethyl phenyl-alpha-acetoxyacetamide, N-ethyl phenyl-alpha-acetoxyacetamide or other phenyl-alpha-acyloxyacetamide derivative of the instant invention was prepared as a 5% solution in acetone: water, 8:2 or ethanol:water, 8:2. A test solution was topically applied to the left dorsal skin of hairless mice. The same topical applications were repeated three times at 30 minute intervals. A vehicle alone solution containing acetone and water or ethanol and water was used as a control. For the next 8 hours and also 24 hours later all mice were carefully observed and examined for any signs or evidence of calming or quieting effects caused by the test compound.
# Normally when a mouse is picked up by the tail with thumb and forefinger the mouse struggles trying to free itself; and if the mouse is placed on a horizontal metallic grid uniformly spaced at 8 mm, the mouse nervously pulls itself across the grid, again trying to free itself from the restraining grip of the fingers.
# If during the above observation period the mouse behaved the same before and after the topical treatment when picked up by the tail and placed on the metallic grid, the test compound was determined to have no significant tranquilizing effect by topical administration.
# [2] = system: scratching or licking induced by pruritic agent; experiment: Screening for anti-pruritic effect, systemic (subcutaneous) administration, hairless mouse challenged with pruritic agent; type: in vivo; conditions: 5% solution 0.1 ml subcutaneous, twice
# Protocol: Either the mouse or the rat may be used as a screening model for anti-pruritic compounds. Again, the hairless mouse or the fuzzy rat is a preferred strain in each species.
# A test composition in a volume of 0.1 ml containing 5% phenyl-alpha-acyloxyacetamide derivative in solution was injected subcutaneously to the hairless mouse. The same procedure was repeated once more 3 hours later. Two hours after the second injection the mouse was challenged with a pruritic composition either applied topically or administered subcutaneously. When the challenging composition containing a pruritic agent was given topically the solution in a volume of 0.05 ml was applied to the left dorsal skin. A control vehicle solution containing no pruritic agent in the same volume of 0.05 ml was topically applied on the right dorsal skin. For the next 30 minutes the mouse was carefully observed for signs and symptoms of scratching or licking at the skin sites where the pruritic composition and the control vehicle solution had been topically applied.
# If the mouse scratched or licked only the left side of the skin where the pruritic composition had been topically applied the test composition which was injected subcutaneously at two and five hours earlier was determined to have no anti-pruritic property. […]
SMILES,tranquilizing effect [1],Anti-pruritic Effect [2]
CCNC(=O)C(OC(C)=O)c1ccccc1 (stereo not drawn) [N-ethyl phenyl-alpha-acetoxyacetamide],no detectable signs of sedation,substantial anti-pruritic effect
CC(=O)OC(C(=O)NCCc1ccccc1)c1ccccc1 (stereo not drawn) [N-phenethyl phenyl-alpha-acetoxyacetamide],marked degrees of tranquilizing effect,substantial anti-pruritic effect
